The test has as its target human GLP-1R (Homo sapiens, UniProt P43220, G168S). As to the kind of experiment: CHO GLP-1R Clone H6 cAMP HTRF agonist assay (Assay 1, high receptor density). The test is classed as cell-based. Particulars: for EC50: CHO GLP-1R clone H6, cAMP HTRF, geometric mean; for Emax: CHO GLP-1R clone H6, arithmetic mean, relative to saturating GLP-1 (1 μM), read-out: Assay 1 Emax (%). The text has this: In Table 5 and Table 6, assay data are presented to two (2) significant figures as the geometric mean (EC50s) and arithmetic mean (Emax) based on the number of replicates listed (Number). A blank cell means there was no data for that Example or the Emax was not calculated.
Background: TR-FRET usually uses a lanthanide donor and a delayed reading to cut background.

human GLP-1R, sequence (P43220 24-463 G168S): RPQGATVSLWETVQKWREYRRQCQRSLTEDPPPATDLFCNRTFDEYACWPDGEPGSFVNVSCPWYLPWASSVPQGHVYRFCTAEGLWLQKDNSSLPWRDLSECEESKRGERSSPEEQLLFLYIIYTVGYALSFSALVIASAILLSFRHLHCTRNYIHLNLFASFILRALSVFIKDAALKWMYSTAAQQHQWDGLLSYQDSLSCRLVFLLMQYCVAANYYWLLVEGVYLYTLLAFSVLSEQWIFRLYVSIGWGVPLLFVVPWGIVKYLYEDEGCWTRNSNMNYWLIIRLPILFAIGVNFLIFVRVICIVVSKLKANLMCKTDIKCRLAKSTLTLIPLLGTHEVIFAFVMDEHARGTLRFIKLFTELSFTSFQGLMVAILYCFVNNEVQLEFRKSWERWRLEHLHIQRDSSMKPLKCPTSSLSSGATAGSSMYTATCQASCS

In the case of `Cn1c(CN2CCC(c3cccc(OCc4c(F)cccc4F)n3)CC2)nc2ccc(C(=O)O)cc21` [Compound 224B, 2-[(4-{6-[(2,6-difluorobenzyl)oxy]pyridin-2-yl}piperidin-1-yl)methyl]-1-methyl-1H-benzimidazole-6-carboxylic acid], the EC50 (as a rule, the concentration that produces a half-maximal response) came out at 1200 nM and the Emax (commonly the size of the effect at its maximum, as opposed to the concentration needed) was determined as 53%.

The compound `O=C(O)c1ccc2nc(CN3CCC(c4cccc(OCc5ccc(Cl)cc5F)n4)CC3)n(CCn3cccn3)c2c1` [Compound 303B, 2-[(4-{6-[(4-chloro-2-fluorobenzyl)oxy]pyridin-2-yl}piperidin-1-yl)methyl]-1-[2-(1H-pyrazol-1-yl)ethyl]-1H-benzimidazole-6-carboxylic acid] displayed an EC50 of 170 nM. Turning to `C[C@H]1CN(c2cccc(OCc3ccc(Cl)cc3F)n2)CCN1Cc1nc2ccc(C(=O)O)cc2n1Cc1cnco1` [Compound 147B, 2-{[(2S)-4-{6-[(4-chloro-2-fluorobenzyl)oxy]pyridin-2-yl}-2-methylpiperazin-1-yl]methyl}-1-(1,3-oxazol-5-ylmethyl)-1H-benzimidazole-6-carboxylic acid], a half-maximal effect (EC50) was put at 210 nM and the Emax came to 79%. As to `COC[C@@H](C)n1c(CN2CCC(c3cccc(OCc4ccc(Cl)cc4F)n3)CC2)nc2ccc(C(=O)O)cc21` [Compound 321B, 2-[(4-{6-[(4-chloro-2-fluorobenzyl)oxy]pyridin-2-yl}piperidin-1-yl)methyl]-1-[(2R)-1-methoxypropan-2-yl]-1H-benzimidazole-6-carboxylic acid], the EC50 came out at 1100 nM and the Emax is 81%. As to `CN1CC(Cn2c(CN3CCC(c4cccc(OCc5ccc(Cl)cc5F)n4)CC3)nc3ccc(C(=O)O)cc32)CC1=O` (centres unmarked) [Compound 317B, 2-[(4-{6-[(4-chloro-2-fluorobenzyl)oxy]pyridin-2-yl}piperidin-1-yl)methyl]-1-[(1-methyl-5-oxopyrrolidin-3-yl)methyl]-1H-benzimidazole-6-carboxylic acid], the EC50 is 500 nM and the Emax was 69%. For `Cc1ccccc1COc1cccc(C2CCN(Cc3nc4ccc(C(=O)O)cc4n3C)CC2)n1` [Compound 230B, 1-methyl-2-[(4-{6-[(2-methylbenzyl)oxy]pyridin-2-yl}piperidin-1-yl)methyl]-1H-benzimidazole-6-carboxylic acid], in that order: 1700 nM and 80%. As to `O=C(O)c1ccc2nc(CN3CCC(c4cccc(OCc5ccc(Cl)cc5F)n4)CC3)n(C[C@H]3CCOC3)c2c1` [Compound 121B, 2-[(4-{6-[(4-chloro-2-fluorobenzyl)oxy]pyridin-2-yl}piperidin-1-yl)methyl]-1-[(3R)-tetrahydrofuran-3-ylmethyl]-1H-benzimidazole-6-carboxylic acid], the EC50 is over 20000 nM. As to `O=C(O)c1ccc2nc(CN3CCC(c4cccc(OCc5ccc(Cl)cc5F)n4)CC3)n(CC3CC(F)(F)C3)c2c1` [Compound 326B, 2-[(4-{6-[(4-chloro-2-fluorobenzyl)oxy]pyridin-2-yl}piperidin-1-yl)methyl]-1-[(3,3-difluorocyclobutyl)methyl]-1H-benzimidazole-6-carboxylic acid], the EC50 came out at 2500 nM and the Emax came to 71%. With `Cn1cnnc1CCn1c(CN2CCC(c3cccc(OCc4ccc(Cl)cc4F)n3)CC2)nc2ccc(C(=O)O)cc21` [Compound 328B, 2-[(4-{6-[(4-chloro-2-fluorobenzyl)oxy]pyridin-2-yl}piperidin-1-yl)methyl]-1-[2-(4-methyl-4H-1,2,4-triazol-3-yl)ethyl]-1H-benzimidazole-6-carboxylic acid], a half-maximal response (EC50) required 3100 nM and the Emax amounted to 51%. Take `CN1CCOC(Cn2c(CN3CCC(c4cccc(OCc5ccc(Cl)cc5F)n4)CC3)nc3ccc(C(=O)O)cc32)C1` (centres unmarked) [Compound 338B, 2-[(4-{6-[(4-chloro-2-fluorobenzyl)oxy]pyridin-2-yl}piperidin-1-yl)methyl]-1-[(4-methylmorpholin-2-yl)methyl]-1H-benzimidazole-6-carboxylic acid]: the EC50 is over 20000 nM. On to `Cn1c(CN2CCC(c3cccc(OCc4ccc(C(F)(F)F)cc4F)n3)CC2)nc2ccc(C(=O)O)cc21` [Compound 222B, 2-{[4-(6-{[2-fluoro-4-(trifluoromethyl)benzyl]oxy}pyridin-2-yl)piperidin-1-yl]methyl}-1-methyl-1H-benzimidazole-6-carboxylic acid], for which it took 130 nM to reach a half-maximal effect (EC50) and the Emax was found to be 72%. For `CCc1noc(Cn2c(CN3CCC(c4cccc(OCc5ccc(Cl)cc5F)n4)CC3)nc3ccc(C(=O)O)cc32)n1` [Compound 264B, 2-[(4-{6-[(4-chloro-2-fluorobenzyl)oxy]pyridin-2-yl}piperidin-1-yl)methyl]-1-[(3-ethyl-1,2,4-oxadiazol-5-yl)methyl]-1H-benzimidazole-6-carboxylic acid], in that order: over 10000 nM and 85%.

As for `CC(c1nncn1C)n1c(CN2CCC(c3cccc(OCc4ccc(Cl)cc4F)n3)CC2)nc2ccc(C(=O)O)cc21` (centres unmarked) [Compound 327B, 2-[(4-{6-[(4-chloro-2-fluorobenzyl)oxy]pyridin-2-yl}piperidin-1-yl)methyl]-1-[1-(4-methyl-4H-1,2,4-triazol-3-yl)ethyl]-1H-benzimidazole-6-carboxylic acid], the EC50 amounted to 2900 nM and the Emax turned out to be 88%. As for `COCCn1c(CN2CCN(c3cccc(OCc4ccc(C#N)cc4)n3)C[C@@H]2C)nc2ccc(C(=O)O)cc21` [Compound 172B, 2-{[(2S)-4-{6-[(4-cyanobenzyl)oxy]pyridin-2-yl}-2-methylpiperazin-1-yl]methyl}-1-(2-methoxyethyl)-1H-benzimidazole-6-carboxylic acid], it took 2900 nM to reach a half-maximal effect (EC50). For the compound `Cc1noc(CCn2c(CN3CCC(c4cccc(OCc5ccc(Cl)cc5F)n4)CC3)nc3ccc(C(=O)O)cc32)n1` [Compound 304B, 2-[(4-{6-[(4-chloro-2-fluorobenzyl)oxy]pyridin-2-yl}piperidin-1-yl)methyl]-1-[2-(3-methyl-1,2,4-oxadiazol-5-yl)ethyl]-1H-benzimidazole-6-carboxylic acid], the midpoint of the response, the EC50, lay at 190 nM and the Emax was 74%. For `Cn1cc(Cn2c(CN3CCC(c4cccc(OCc5ccc(Cl)cc5F)n4)CC3)nc3ccc(C(=O)O)cc32)nn1` [Compound 311B, 2-[(4-{6-[(4-chloro-2-fluorobenzyl)oxy]pyridin-2-yl}piperidin-1-yl)methyl]-1-[(1-methyl-1H-1,2,3-triazol-4-yl)methyl]-1H-benzimidazole-6-carboxylic acid], in that order: 350 nM and 71%. For `O=C(O)c1ccc2nc(CN3CCC(c4cccc(OCc5ccc(Cl)cc5F)n4)CC3)n(C[C@H]3CCCO3)c2c1` [Compound 343B, 2-[(4-{6-[(4-chloro-2-fluorobenzyl)oxy]pyridin-2-yl}piperidin-1-yl)methyl]-1-[(2R)-tetrahydrofuran-2-ylmethyl]-1H-benzimidazole-6-carboxylic acid], in that order: 510 nM and 64%.

For `Cc1cc(Cn2c(CN3CCC(c4cccc(OCc5ccc(Cl)cc5F)n4)CC3)nc3ccc(C(=O)O)cc32)on1` [Compound 322B, 2-[(4-{6-[(4-chloro-2-fluorobenzyl)oxy]pyridin-2-yl}piperidin-1-yl)methyl]-1-[(3-methyl-1,2-oxazol-5-yl)methyl]-1H-benzimidazole-6-carboxylic acid], the EC50 stood at 1400 nM and the Emax was 97%. As for `N#Cc1ccc(COc2cccc(C3CCN(Cc4nc5ccc(C(=O)O)nc5n4Cc4ncco4)CC3)n2)c(F)c1` [Compound 214B, 2-[(4-{6-[(4-cyano-2-fluorobenzyl)oxy]pyridin-2-yl}piperidin-1-yl)methyl]-3-(1,3-oxazol-2-ylmethyl)-3H-imidazo[4,5-b]pyridine-5-carboxylic acid], the Emax stood at 71%. `O=C(O)c1ccc2nc(CN3CCC(c4cccc(OCc5ccc(Cl)cc5F)n4)CC3)n([C@H]3CCOC3)c2c1` [Compound 272B, 2-[(4-{6-[(4-chloro-2-fluorobenzyl)oxy]pyridin-2-yl}piperidin-1-yl)methyl]-1-[(3S)-tetrahydrofuran-3-yl]-1H-benzimidazole-6-carboxylic acid] showed a half-maximal effective concentration (EC50) of over 20000 nM. Consider `Cn1cc(CCn2c(CN3CCC(c4cccc(OCc5ccc(Cl)cc5F)n4)CC3)nc3ccc(C(=O)O)cc32)nn1` [Compound 319B, 2-[(4-{6-[(4-chloro-2-fluorobenzyl)oxy]pyridin-2-yl}piperidin-1-yl)methyl]-1-[2-(1-methyl-1H-1,2,3-triazol-4-yl)ethyl]-1H-benzimidazole-6-carboxylicacid], for which the EC50 stood at 1100 nM and the Emax amounted to 47%.

As for `COCCn1c(CN2CCC(c3ccc(F)c(OCc4ccc(Cl)cc4F)n3)CC2)nc2ccc(C(=O)O)cc21` [Compound 178B, 2-[(4-{6-[(4-chloro-2-fluorobenzyl)oxy]-5-fluoropyridin-2-yl}piperidin-1-yl)methyl]-1-(2-methoxyethyl)-1H-benzimidazole-6-carboxylic acid], the EC50 is 4500 nM and the Emax worked out at 48%.

`CCn1cncc1Cn1c(CN2CCN(c3cccc(OCc4ccc(C#N)cc4F)n3)C[C@@H]2C)nc2ccc(C(=O)O)cc21` [Compound 269B, 2-{[(2S)-4-{6-[(4-cyano-2-fluorobenzyl)oxy]pyridin-2-yl}-2-methylpiperazin-1-yl]methyl}-1-[(1-ethyl-1H-imidazol-5-yl)methyl]-1H-benzimidazole-6-carboxylic acid] showed an EC50 of over 20000 nM. For `Cc1nc(Cn2c(CN3CCC(c4cccc(OCc5ccc(Cl)cc5F)n4)CC3)nc3ccc(C(=O)O)cc32)c(C)o1` [Compound 330B, 2-[(4-{6-[(4-chloro-2-fluorobenzyl)oxy]pyridin-2-yl}piperidin-1-yl)methyl]-1-[(2,5-dimethyl-1,3-oxazol-4-yl)methyl]-1H-benzimidazole-6-carboxylic acid], the EC50 amounted to 9300 nM and the Emax is 100%.

These data come from patent US20250235460A1, “COMBINATION THERAPY USING GLUCOSE-DEPENDENT INSULINOTROPIC POLYPEPTIDE RECEPTOR ANTAGONIST COMPOUNDS AND GLP-1 RECEPTOR AGONIST COMPOUNDS” (Pfizer Inc., priority 2024, published 2025).
